Measurements as given in US7276514B2, “Pyrroloquinoline quinone drugs for treatment of cardiac injury and methods of use thereof” (Charitable Leadership Foundation - Medical Technology …, priority 2002, dated 2007).
Entries after “also recorded” stand apart in the source; their conditions may differ.

Columns and labels:
[1] = system: cardiac myocytes; experiment: Cultured cardiac myocytes subjected to oxidative stress by H2O2; format: cell-based
Description: Cultured cardiac myocytes are subjected to oxidative stress by in vitro administration of H2O2. Two studies are done, one in which PQQ is added in concentrations between 10 nM and less than 10 μM to cardiac myocytes, after which H2O2 is added. In the other study, cardiac myocytes are subjected to insult in vitro admininstration of H2O2 for two hours, after which PQQ is added in concentrations between 10 nM and less than 10 μM. In both studies, PQQ is found to be protective.

[2] = system: adult cardiac mouse myocytes; experiment: Cultured adult cardiac mouse myocytes exposed to severe hypoxia, viability by trypan blue exclusion; format: cell-based
Description: An in vitro model of cultured adult cardiac mouse myocytes was developed to study cardioprotection by PQQ. These cells are viable in culture for up to 48 hours at a physiologic pH and consist of >90% rod-shaped cells. These cells can be used readily for determination of cell viability by trypan blue exclusion, and for biochemical, immunochemical, and molecular studies. In this model, approximately 35% of the cells die when exposed to 0% oxygen in a hypoxia chamber for 2-3 hours. […] A higher concentration of PQQ (100 μM) is highly toxic under normoxic conditions as evidenced by 100% cell death.

[3] = system: adult mouse cardiac myocytes; experiment: Toxicity of PQQ to cultured adult mouse cardiac myocytes under normoxic conditions; format: cell-based; details: 100 μM PQQ
Description: The invention encompasses methods of treating or preventing cardiac injury caused by hypoxia or ischemia in a subject, wherein PQQ is administered to a subject in need thereof, such that hypoxia or ischemic-related injury is prevented or decreased. In certain embodiments, the PQQ is administered at a concentration of less than about 10 μM. In other embodiments, the PQQ is administered at a concentration in the range of about 10 nM to about 10 μM, about 10 nM to about 1 μM, 100 nM to about 10 μM, and 100 nM to about 500 nM. In still other embodiments of the invention, the PQQ is administered at a concentration such that the concentration of PQQ at the site of cardiac tissue is in the range of 10 nM to about 10 μM. PQQ may also be administered as a function of the subject's body weight. In some embodiments of the invention, PQQ is administered at a concentration of between about 1 μg/kg to 1 g/kg of a subject's body weight, including less than 500 mg/kg, 250 mg/kg, 100 mg/kg, 10 mg/kg, 5 mg/kg, 2 mg/kg, 1 mg/kg, 500 μg/kg, 250 μg/kg, 100 μg/kg, 10 μg/kg, 5 μg/kg, 2 μg/kg or 1 μg/kg. […]
An in vitro model of cultured adult cardiac mouse myocytes was developed to study cardioprotection by PQQ. […] These cells can be used readily for determination of cell viability by trypan blue exclusion, and for biochemical, immunochemical, and molecular studies. […]

[4] = system: isolated mouse heart; experiment: Ex vivo isolated mouse heart (Langendorff), 20 min ischemia followed by 30 min reperfusion; details: 100 nM PQQ given at the time of onset of reperfusion
[5] = system: isolated mouse heart; experiment: as above
Description: Ex vivo studies were performed using an isolated mouse heart preparation employing the Langendorff technique. In this approach, the heart is removed and mounted on a perfusion apparatus in which drugs can be given via an aortic cannula. The heart is paced at a constant rate, and left ventricular developed pressure [LVDP; left ventricular systolic pressure minus left ventricular end-diastolic pressure], left ventricular end-diastolic pressure [LVEDP], and the maximum positive and negative first derivatives of left ventricular pressure [+dP/dtmax and −dP/dtmax] are recorded. The heart is equilibrated for 20 min. After drug or vehicle is infused, the heart is subjected to 20 min of ischemia [coronary flow completely stopped] followed by 30 min of reperfusion. Coronary sinus flow as a reflection of coronary blood flow is also measured. This protocol leads to severe myocardial injury as measured by hemodynamic parameters.

[6] = 100 nM PQQ infused for 2 minutes prior to ischemia

## O=C(O)c1cc(C(=O)O)c2c(n1)C(=O)C(=O)c1cc(C(=O)O)[nH]c1-2 [PQQ, Pyrroloquinoline quinone]
[1]; PQQ between 10 nM and less than 10 μM added after two hours of H2O2
  protection of cardiac myocytes against H2O2 oxidative stress: protective
[1]; PQQ between 10 nM and less than 10 μM added before H2O2
  protection of cardiac myocytes against H2O2 oxidative stress: protective
[2]; 1 μM PQQ added 1 hour before severe hypoxia (0% oxygen for 2-3 hours)
  proportion of viable cells (trypan blue exclusion) after hypoxia: significant increase
[2]; 1 μM PQQ with 100 μM 5-hydroxydecanoic acid
  PQQ protection against hypoxia-induced cell death in presence of mitochondrial KATP channel inhibitor: not inhibited
[2]; 10 μM 5-hydroxydecanoic acid
  PQQ protection in presence of mitochondrial KATP channel inhibitor (FIG. 2 legend): not inhibited
[3]
  toxicity to cultured adult mouse cardiac myocytes: highly toxic; also recorded: observed
[3]; normoxic conditions
  cell death: 100%
[4]
  hemodynamic response when given at onset of reperfusion (PQQ tre.): equivalent to pretreatment
[5]; [6]
  +dP/dtmax: track the LVDP results
  left ventricular developed pressure (LVDP): significant preservation; also recorded: preserves
  left ventricular end-diastolic pressure (LVEDP): preserves
  −dP/dtmax: track the LVDP results
[5]; 2 min pretreatment, 10 μM PQQ
  toxicity (FIG. 8): toxicity occurs
[5]; 2 min pretreatment, PQQ between 10 nM and 1 μM
  hemodynamic response (FIG. 8): progressively favorable responses
[5]; PQQ pretreatment at 10 μM
  infarct size: not reduced
[5]; PQQ pretreatment between 10 nM and 1 μM
  infarct size: progressive reduction
[5]; PQQ pretreatment compared to control
  coronary flow: significantly improved
